In data set [1] the test system is human small cell lung carcinoma POVD. Description: Effect against human small cell lung carcinoma POVD (in vivo), athymic mice. The note with it: for antitumor activity (in words): SCLC tumor POVD; for toxicity deaths / tumor inhibition (Tumor Weight Inhibition %, TWI%): i.v., optimal dose: DXR 7 mg/Kg, IIa 8.5 mg/Kg (days 10, 17, 24), IIc 5 mg/Kg (days 10, 14, 17, 21, 24); for tumor inhibition (Tumor Weight Inhibition %, TWI%): determined 7-10 days after last treatment. Also on record: species or system human tumor in athymic mice. The protocol:
(§1) For in vivo studies athymic mice were injected subcutaneous with tumor fragments in both flanks. Growth of tumors was followed by twice weekly caliper measurement of length and width. Tumor weight was calculated using the formula: mg=volume in mm^3 =width^2 ×length/2 (considering density=1).
(§2) The test compounds were delivered, at the optimal doses and schedules, intravenously (i.v.) to tumor-bearing mice starting at different times in the different tumors using (see experiments for details). The effects achieved by the treatments were expressed as Tumor Weight Inhibition % (TWI%) in treated versus control mice, determined 7-10 days after the last drug treatment.

For data set [2], the system named is LOVO (colon) cells. Description: Cytotoxic activity in vitro, MTT assay, LOVO (colon). In kind it is cell-based. The note with it: Homo sapiens. The protocol:
(§3) was tested, in comparison with doxorubicin, against a variety of human tumors of different histotypes including ovarian carcinoma, lung cancer , breast cancer, cervical carcinoma, colon cancer.
(§4) Cell survival, following test compound exposure, was evaluated by the growth inhibition test, with the exception of small cell lung cancer cell lines (SCLC). Cells in the logarithmic phase of growth were harvested and placed into 6-well. Twenty-four h after seeding, cells were exposed to test compounds for different times. After replacement with drug-free medium, cells were harvested and counted 72 h following compound exposure. In the case of SCLC, MCF-7 and LOVO, the MTT assay has been used and the colorimetric evaluation of survival was performed at the end of the incubation time (24 or 96 h). The results obtained from cytotoxicity experiments are expressed as IC50 (i.e., concentration required for 50% inhibition of cell growth).
(§5) The test compounds were dissolved in distilled water and then diluted in culture medium.

In data set [3] the test system is human ovarian carcinoma A2780. The data set is described as follows: Effect against human ovarian carcinoma A2780 (in vivo), athymic mice. Particulars: for antitumor activity compared with doxorubicin (in words): against A2780 ovarian carcinoma; for toxicity deaths / tumor inhibition (Tumor Weight Inhibition %, TWI%): i.v., optimal dose: DXR 7 mg/Kg, IIa 8.5 mg/Kg (days 11, 18, 25), IIc 5 mg/Kg (days 11, 15, 18, 21, 25); for tumor inhibition (Tumor Weight Inhibition %, TWI%): determined 7-10 days after last treatment. Also on record: species or system human tumor in athymic mice. The protocol: as §1, §2

Data set [4] deals with H-460 (non-small cell lung cancer) cells. Description: Cytotoxic activity in vitro, growth inhibition test, H-460 (non-small cell lung cancer). Format: cell-based. Particulars: Homo sapiens. The protocol: as §3, §4, §5
In data set [5] the test system is A2780 (ovarian) cells. Description: Cytotoxic activity in vitro, growth inhibition test, A2780 (ovarian). Format: cell-based. Particulars: Homo sapiens. As for the experimental part: as §3, §4, §5
For data set [6], the system named is POVD (small cell lung cancer) cells. Description: Cytotoxic activity in vitro, MTT assay, POVD (small cell lung cancer). Format: cell-based. Particulars: Homo sapiens. As for the experimental part:
as §3, §4, §5

Data set [7] relates to MCF-7 (breast) cells. Description: Cytotoxic activity in vitro, MTT assay, MCF-7 (breast). In kind it is cell-based. The note with it: Homo sapiens. The protocol:
as §3, §4, §5

The test system of data set [8] is A431 (cervix) cells. Description: Cytotoxic activity in vitro, growth inhibition test, A431 (cervix). In kind it is cell-based. The note with it: Homo sapiens. The protocol:
as §3, §4, §5

Setting [9] is: LOVO (colon), drug exposure 24 h, read-out: IC50.
Where [10] appears, read: NCI-H460, H-460 (non-small cell lung cancer), drug exposure 24 h, read-out: IC50.
Where [11] appears, read: A2780 (ovarian), drug exposure 24 h, read-out: IC50.
The mark [12] stands for this setting: POVD (small cell lung cancer), drug exposure 96 h, read-out: IC50.
Where [13] appears, read: MCF7, MCF-7 (breast), drug exposure 24 h, read-out: IC50.
Setting [14] is: A-431, A431 (cervix), drug exposure 24 h, read-out: IC50.

Values after ≈ are worked out from the molar mass of the structure shown. Counter-ions that a name gives are not always drawn. Like-named read-outs stand apart in the source and are kept apart here.

Regarding `CC(=O)[C@]1(O)Cc2c(O)c3c(c(O)c2[C@@H](O[C@H]2C[C@H](O)[C@H](O[C@H]4C[C@H](N)[C@H](O)[C@H](C)O4)[C@H](C)O2)C1)C(=O)c1ccccc1C3=O` [IIa, 7-0-[2,6-dideoxy-4-0-(2,3,6-trideoxy-3-amino-a-L-lyxo-exopyranosyl)-a-L-lyxo-exopyranosyl]-4-demethoxy-daunorubicinone hydrochloride], the “antitumor activity (in words)” value in data set [1] is given as “very high antitumor activity”. Besides, the toxicity deaths in data set [1] and in data set [3] was 0/5 in each case. Moreover, the “tumor inhibition (Tumor Weight Inhibition %, TWI%)” value in data set [1] is on record as 80%; in data set [3], 75%. In addition, the 50% inhibitory concentration (IC50) in data set [2] (setting [9]) was found to be 0.0065 µg/mL; in data set [4] (setting [10]) it was 0.015 µg/mL; in data set [5] (setting [11]), 0.001 µg/mL; in data set [6] (setting [12]) it was 0.015 µg/mL; in data set [7] (setting [13]), 0.01 µg/mL; in data set [8] (setting [14]) it was 0.012 µg/mL. Also, the “antitumor activity compared with doxorubicin (in words)” value in data set [3] is on record as “at least the same effectiveness than doxorubicin”.
Consider `C[C@@H]1O[C@@H](O[C@@H]2[C@H](C)O[C@@H](O[C@H]3C[C@](O)(C(=O)CO)Cc4c(O)c5c(c(O)c43)C(=O)c3ccccc3C5=O)C[C@@H]2O)C[C@H](O)[C@@H]1O` [IIb, 7-0-[2,6-dideoxy-4-0-(2,6-dideoxy-a-L-lyxo-exopyranosyl)-a-L-lyxo-exopyranosyl]-4-demethoxy-doxorubicinone hydrochloride], for which the IC50 turned out to be 0.0085 µg/mL in data set [2] (setting [9]); 0.018 µg/mL in data set [4] (setting [10]); 0.01 µg/mL in data set [5] (setting [11]); 0.02 µg/mL in data set [6] (setting [12]); 0.015 µg/mL in data set [7] (setting [13]); 0.026 µg/mL in data set [8] (setting [14]).
Regarding `C[C@@H]1O[C@@H](O[C@@H]2[C@H](C)O[C@@H](O[C@H]3C[C@](O)(C(=O)CO)Cc4c(O)c5c(c(O)c43)C(=O)c3ccccc3C5=O)C[C@@H]2O)C[C@H](N)[C@@H]1O` [IIc, 7-0-[2,6-dideoxy-4-0-(2,3,6-trideoxy-3amino-a-L-lyxo-exopyranosyl)-a-L-lyxo-exopyranosyl]-4-demethoxy-doxorubicinone hydrochloride], the “antitumor activity (in words)” value in data set [1] is recorded as “very high antitumor activity”. Further, the toxicity deaths in data set [1] and in data set [3] was 0/5 each time. In addition, the “tumor inhibition (Tumor Weight Inhibition %, TWI%)” value amounted to 91% in data set [1] and 99% in data set [3]. The IC50 in data set [2] (setting [9]) was 0.01 µg/mL; in data set [4] (setting [10]) it was 0.01 µg/mL; in data set [5] (setting [11]), 0.005 µg/mL; in data set [6] (setting [12]) it was 0.011 µg/mL; in data set [7] (setting [13]), 0.0056 µg/mL; in data set [8] (setting [14]), 0.016 µg/mL. Moreover, the “antitumor activity compared with doxorubicin (in words)” value in data set [3] is reported as “antitumor activity greatly superior to that of the parent compund”.
As to `COc1cccc2c1C(=O)c1c(O)c3c(c(O)c1C2=O)C[C@@](O)(C(=O)CO)C[C@@H]3O[C@H]1C[C@H](N)[C@H](O)[C@H](C)O1` [DXR, doxorubicin, reference compound], the “antitumor activity (in words)” value in data set [1] is given as “refractory”. In addition, the toxicity deaths in data set [1] and in data set [3] was 0/5 throughout. Besides, the “tumor inhibition (Tumor Weight Inhibition %, TWI%)” value in data set [1] was 44%; in data set [3], 68%. For the same compound, the IC50 in data set [2] (LoVo, 24 h) was 0.01 µg/mL (≈ 0.0184 µM); in data set [4] (NCI-H460, 24 h), 0.02 µg/mL (≈ 0.0368 µM); in data set [5] (A2780, 24 h), 0.03 µg/mL (≈ 0.0552 µM); in data set [6] (96 h), 0.034 µg/mL (≈ 0.0626 µM); in data set [7] (MCF7, 24 h), 0.01 µg/mL (≈ 0.0184 µM); in data set [8] (A-431, 24 h), 0.036 µg/mL (≈ 0.0662 µM).

The values above are taken from patent US5801152A, “Antracycline disaccharides, process for their preparation, and pharmaceutical compositions containing them” (A. Menarini Industrie Farmaceutiche Riunite S.r.l., priority 1993, dated 1998).
